Measurements from patent publication US20230371507A1 (priority 2020, published 2023).
Read-outs that look alike come from different tables or passages of the source.

How the values were obtained:
B. cinerea [1] = assay: bio-assay with tomato leaves against B. cinerea; type: in vivo, Botrytis cinerea
Description: The untreated control (#2, only 70% ethanol) was taken as a reference for the maximal infection rate.

[2] = test system: Puccinia triticina strain BT06M215; assay: in planta intensity of infection of wheat leaves by Puccinia triticina; type: in vivo
Description: This experiment illustrates the effect of the crude extract (YE) of P. aphidis, synthetic (E)-2-octyl-2-pentenedioic acid (PA), extracted 2-octyl-2 pentenedioic acid from Pseudozyma aphidis in methanol, Rhapsody® (Bacillus subtilis) and Amistart (azoxystrobin) at 0.1% on the intensity of infection of wheat leaf fragments by uredospores of Puccinia triticina strain BT06M215. Rhapsody® (Bacillus subtilis) and Amistar® (azoxystrobin) are commercially available fungicidal solutions. P. titicina strain BT06M215 was isolated from untreated wheat leaves in France.
All fungicidal products were prepared in a volume of water corresponding to 200 L/ha. […]
For each experimental condition tested, 18 replicates of one wheat leaf were tested. […] Disease assessment (intensity of infection) on the first leaf of each wheat plantlets is monitored at 8 to 15 days post inoculation.

[3] = test system: Zymoseptoria tritici strain Mg Tri-R6; type: in vivo; details: wheat; in methanol, applied at 100 gr/ha; Proline applied at 0.8 L/ha (FIGS. 7a, 7b)
B. cinerea [4] = assay: bio-assay in liquid medium (PDB) with B. cinerea as indicator strain; type: cell-based, Botrytis cinerea; details: at both a pH of 3 and a pH of 5 (FIG. 1)
Method: 2-octyl-2 pentenedioic acid was also evaluated for antifungal activity using bio-assay in liquid medium using B. cinerea as an indicator strain. The bio-assay was carried out in PDB liquid medium.
The bio-assay for determination of antifungal activity was set-up based on the procedure as described in Stammler and Speakman, 2006. Microtiter Method to Test the Sensitivity of Botrytis cinerea to Boscalid. Journal of Phytopathology, 154, 7-8, p 508-510. This bio-assay is based on dilution of the antimicrobial agent and determination of growth inhibition of a sensitive indicator strain, in this case Botrytis cinerea. The bio-assay was performed in 96-well microtiter plates and included micro-dilutions of the antimicrobial agent in a liquid growth medium, where each well was inoculated with a standardized number of fungal spores of the indicator strain. After incubation (no agitation, 18° C. in darkness for 5 days), the results were obtained by measurement of fungal growth by photometer at 405 nm and the values were corrected by comparison with the blanks (cultures without the antimicrobial compound). The ED (effective dose) values are compared with reference standard fungicides.

P. infestans = type: cell-based, Phytophthora infestans
[5] = test system: Phytophthora infestans strain Pi61; type: in vivo; details: in methanol, applied at 150 g/ha; Shirlan applied at 200 g/ha (FIGS. 10a, 10b)

CC(=O)O [Sample 3, Acetic acid]
effect on B. cinerea infection (in words) (B. cinerea [1]): inhibited B. cinerea infection

CCCCCCCCC(=CCC(=O)O)C(=O)O [2-octyl-2 pentenedioic acid]
efficacy against Puccinia triticina compared to Amistar ([2]; in methanol, applied at 100 g/ha, Amistar applied at 1 L/ha (FIGS. 4a, 4b)): comparable efficacy | efficacy against Zymoseptoria tritici compared to Proline [3]: comparable efficacy | efficacy against B. cinerea (B. cinerea [4]): excellent efficacy | ED90 (P. infestans; pH 4.6, V8 juice liquid media): 37 ppm | ED90 (P. infestans; pH 6.2, V8 juice liquid media): 41 ppm | ED90 (P. infestans; pH 8.0, V8 juice liquid media): Not detected

CCCCCCCC/C(=C\CC(=O)O)C(=O)O [2-octyl-2 pentenedioic acid (synthetic), (E)-2-octyl-2-pentenedioic acid]
efficacy against Puccinia triticina compared to Rhapsody ([2]; Rhapsody applied at 2.0 L/ha (FIGS. 3a, 3b)): comparable efficacy | ED90 (P. infestans; pH 4.6, V8 juice liquid media): 41 ppm | ED90 (P. infestans; pH 6.2, V8 juice liquid media): 42 ppm | ED90 (P. infestans; pH 8.0, V8 juice liquid media): Not detected | efficacy against Phytophthora infestans compared to Shirlan (fluazinam) [5]: comparable efficacy
